Our source for the IC50 and melting point values is US9593144B2, “FPR1 antagonist derivatives and use thereof” (CHANG GUNG UNIVERSITY, priority 2014, dated 2017).

Read-outs that look alike come from different tables or passages of the source. Square brackets hold non-standard residues; d marks the D form. Peptide text beside a SMILES is read from it. * marks the point of attachment. Hydrocinnamoyl = O=C(CCc1ccccc1)*

The subject of data set [1] is human neutrophils. The data set can be described thus: cells. The class given is cell-based. To be noted: Neutrophil, mean ± SEM. The source says:
Tables 5 and 6 explore whether there is an anti-inflamatory effect in the dipeptide derivatives. Because ferricytochrome c cannot penetrate cell membranes, it reacts with superoxide anion extracellularly. Also, there are absorptive reactions at 550 nm, and differences among the absorptive reactions can be used to evaluate the influence on the release of superoxide anion. The elastase is released by degranulation as the neutrophil is activated. Tables 5 and 6 use the substrate, MeO-Suc-Ala-Ala-Pro-Val-p-nitroanilide, with the specificity for reacting with the elastase so as to evaluate the influence of the candidate compound on the elastase release.
Blood was taken from healthy human donors (20-32 years old) by venipuncture, following a protocol approved by the Institutional Review Board at Chang Gung Memorial Hospital. Neutrophils were isolated by a standard method of dextran sedimentation prior to centrifugation in a Ficoll Hypaque gradient and the hypotonic lysis of erythrocytes.
The evaluation of O2.^− generation was based on the SOD-inhibitable reduction of ferricytochrome c. In brief, after supplementation with 0.5 mg ml^−1 ferricytochrome c and 1 mM Ca^2+, neutrophils were equilibrated at 37° C. for 2 min and incubated with drugs […].

The test system of data set [2] is human neutrophils. The data set can be described thus: cells. It is filed as cell-based. To be noted: Neutrophil, mean ± SEM. As to the method: Degranulation of azurophilic granules was determined by elastase release as described above. Experiments were performed using MeO-Suc-[…]-nitroanilide as the elastase substrate. […] Results are expressed as the percentage of elastase release in the drug-free control group, DMSO. Tables 5 and 6 explore whether there is an anti-inflamatory effect in the dipeptide derivatives. Because ferricytochrome c cannot penetrate cell membranes, it reacts with superoxide anion extracellularly. Also, there are absorptive reactions at 550 nm, and differences among the absorptive reactions can be used to evaluate the influence on the release of superoxide anion. The elastase is released by degranulation as the neutrophil is activated. Tables 5 and 6 use the substrate, MeO-Suc-[…]-nitroanilide, with the specificity for reacting with the elastase so as to evaluate the influence of the candidate compound on the elastase release. Blood was taken from healthy human donors (20-32 years old) by venipuncture, following a protocol approved by the Institutional Review Board at Chang Gung Memorial Hospital. Neutrophils were isolated by a standard method of dextran sedimentation prior to centrifugation in a Ficoll Hypaque gradient and the hypotonic lysis of erythrocytes. […] The degranulation of azurophilic granules was determined by elastase release as described above. Experiments were performed using MeO-Suc-[…]-nitroanilide as the elastase substrate. Briefly, after supplementation with MeO-Suc-[…]-nitroanilide ([…] neutrophils (6×10^5 ml^-1) were equilibrated at 37° C. for 2 min and incubated with drugs for 5 min. […] The results are expressed as the percentage of elastase release in the drug-free control group.
The source holds these as a separate data set.

The mark [3] stands for this setting: human neutrophils, fMLP/CB, n = 3, Table 1, read-out: Anti-inflammation O2•− generation (IC50).
The mark [4] stands for this setting: fMLP/CB, n = 3, Table 1, read-out: Anti-inflammation NE release (IC50).

As a reminder, the melting point is the temperature, or range, at which the solid turns liquid. As to `COC(=O)[C@@H](Cc1ccccc1)NC(=O)[C@H](Cc1c[nH]c2ccccc12)NC(=O)c1ccc(C)cc1` [Compound 6, N—(N-4-Methylbenzoyl-L-tryptophanyl)-D-phenylalanine methyl ester], the melting point was 169 to 171 °C. Further, the IC50 in the data set with human neutrophils [1] (WKYMVm, n = 4 or 8, Table 5, read-out: Superoxide anion WKYMVm IC50) was determined as 6.55 ± 0.59 µM. The IC50 in the data set with human neutrophils [1] (WKYMVm/CB, n = 3, Table 4, read-out: WKYMVm/CB O2•− generation (IC50)) turned out to be 6.55 ± 0.59 µM. Besides, in the data set on human neutrophils [1] (human neutrophils, fMLF/CB, n = 3, Table 4, read-out: fMLF/CB O2•− generation (IC50)), the IC50 came out at 1.88 ± 0.29 µM. In the data set with human neutrophils [1] (human neutrophils, fMLF, n = 4 or 8, Table 5, read-out: Superoxide anion fMLF IC50), the IC50 was 1.88 ± 0.29 µM. Besides, the IC50 in the data set with human neutrophils [1] (setting [3]) turned out to be 1.88 ± 0.29 µM. Moreover, the IC50 with human neutrophils [2] (WKYMVm, n = 4 or 8, Table 6, read-out: Elastase release WKYMVm IC50) came out at 1.96 ± 0.11 µM. Further, the IC50 in the data set with human neutrophils [2] (WKYMVm/CB, n = 3, Table 4, read-out: WKYMVm/CB NE release (IC50)) stood at 1.96 ± 0.11 µM. For the same compound, in the data set on human neutrophils [2] (fMLF, n = 4 or 8, Table 6, read-out: Elastase release fMLF IC50), the IC50 was 2.47 ± 0.25 µM. For the same compound, the IC50 in the data set with human neutrophils [2] (fMLF/CB, n = 3, Table 4, read-out: fMLF/CB NE release (IC50)) stood at 2.47 ± 0.25 µM. Further, the IC50 with human neutrophils [2] (setting [4]) amounted to 2.47 ± 0.25 µM.

Regarding `COC(=O)[C@@H](Cc1ccccc1)NC(=O)[C@H](Cc1c[nH]c2ccccc12)NC(=O)c1ccc(Cl)cc1` [Compound 5, N—(N-4-Chlorobenzoyl-L-tryptophanyl)-D-phenylalanine methyl ester], the melting point lay in the range of 191 to 193 °C. In the data set with human neutrophils [1] (setting [3]), the IC50 was greater than 30 µM. For the same compound, the IC50 in the data set on human neutrophils [2] (setting [4]) stood at 10.4 ± 4.61 µM.

Take `COC(=O)[C@@H](Cc1ccccc1)NC(=O)[C@H](Cc1c[nH]c2ccccc12)NC(=O)CCc1ccccc1` [Compound 9, N—(N-Phenylpropanoyl-L-tryptophanyl)-D-phenylalanine methyl ester] (Hydrocinnamoyl-Trp-[dF]-OMe): the melting point lay in the range of 159 to 161 °C. Besides, the IC50 in the data set on human neutrophils [1] (setting [3]) worked out at 10.1 ± 3.05 µM. In addition, the IC50 in the data set with human neutrophils [2] (setting [4]) turned out to be 12.5 ± 4.87 µM.

Compound `O=C(N[C@@H](Cc1c[nH]c2ccccc12)C(=O)N[C@@H](CO)Cc1ccccc1)c1ccccc1` [Compound 13a, N—(N-Benzoyl-L-tryptophanyl)-D-phenylalaninol] yielded a melting point of 151 to 153 °C. The IC50 with human neutrophils [1] (human neutrophils, fMLP/CB, n = 3, Table 3, read-out: Anti-inflammation O2•− generation (IC50)) was greater than 30 µM. Moreover, in the data set on human neutrophils [2] (fMLP/CB, n = 3, Table 3, read-out: Anti-inflammation NE release (IC50)), the IC50 was greater than 30 µM.
